Experimental findings from patent US20230012368A1 (Hoffmann-La Roche Inc., priority 2018, published 2023) are described below.

In general, IC90 refers to the concentration needed for an effect of 90%.

Counter-ions that a name gives are not always drawn.

For one assay, the system named is Acinetobacter baumannii ATCC 17978. Kind of assay: Antimicrobial susceptibility testing: 90% growth inhibitory concentration (IC90) determination. Format: cell-based. The settings on record: 90% growth inhibitory concentration; Acinetobacter baumannii ATCC17978; Iso-Sensitest broth, OD 600 nm over 16h; read-out: ATCC17978 IC90. The method, boiled down: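 Growth of the Acinetobacter baumannii strain was followed by optical density at 600 nm every 20 minutes for 16h at 35±2° C. Inoculum was ~5×10^(5) CFU/ml in Iso-Sensitest medium, with twofold compound dilutions (e.g. 50 to 0.097 μM final). The 90% inhibitory concentration was derived in log-phase growth.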
With `CCc1cc(Nc2nccn3c(-c4ccc(Oc5ccc(OCCCN)cn5)c(F)c4F)cnc23)ccc1C(=O)NC` [Example 511, 4-[[3-[4-[[5-(3-aminopropoxy)-2-pyridyl]oxy]-2,3-difluoro-phenyl]imidazo[1,2-a]pyrazin-8-yl]amino]-2-ethyl-N-methyl-benzamide; formic acid], the concentration for an effect of 90% (IC90) came to 480 nM.

For the molecule `CCc1cc(Nc2nccn3c(-c4ccc(OC(F)F)c(F)c4F)cnc23)ccc1C(=O)NC(CCN)C(F)F` (stereo not drawn) [Example 315, N-(4-amino-1,1-difluorobutan-2-yl)-4-[[3-[4-(difluoromethoxy)-2,3-difluorophenyl]imidazo[1,2-a]pyrazin-8-yl]amino]-2-ethylbenzamide; hydrochloride], the IC90 is 1300 nM.

For the molecule `N#CCOc1ccc(-c2cnc3c(Nc4ccc(C(=O)NCCc5nnn[nH]5)c(Cl)c4)nccn23)c(F)c1F` [Example 104, 2-chloro-4-[[3-[4-(cyanomethoxy)-2,3-difluoro-phenyl]imidazo[1,2-a]pyrazin-8-yl]amino]-N-[2-(1H-tetrazol-5-yl)ethyl]benzamide], the IC90 came out at 1100 nM.

Still in this assay, the particulars now being: Acinetobacter baumannii, ATCC17978, 16 h, 90% growth inhibitory concentration; Acinetobacter baumannii ATCC17978; Iso-Sensitest broth, OD 600 nm over 16h; read-out: ATCC17978 IC90.
With `CCc1cc(Nc2nccn3c(-c4ccc(Oc5cnn[nH]5)c(F)c4F)cnc23)ccc1C(=O)NCC1CCN(CC2CCNC2)CC1` (stereo not drawn) [Example 557, 4-[[3-[2,3-difluoro-4-(1#H!- triazol-5-yloxy)phenyl]imidazo[1,2-a]pyrazin-8-yl]amino]-2-ethyl-#N!-[[1-(pyrrolidin-3-ylmethyl)piperidin-4-yl]methyl]benzamide;formic acid], the IC90 was 480 nM.

As to `Cc1cc(Nc2nccn3c(-c4ccc(OC(F)F)cc4)cnc23)ccc1C(=O)NCCCCNC(=N)N` [Example 83, 4-((3-(4-(difluoromethoxy)phenyl)imidazo[1,2-a]pyrazin-8-yl)amino)-N-(4-guanidinobutyl)-2-methylbenzamide], the IC90 was 250 nM.

With `COc1ccc(-c2cnc3c(Nc4ccc(C(=O)N5CCN(C(=O)[C@@H]6C[C@@](C)(O)CN6)CC5)c(C)c4)nccn23)c(F)c1F` [Example 362, [4-[[3-(2,3-difluoro-4-methoxyphenyl)imidazo[1,2-a]pyrazin-8-yl]amino]-2-methylphenyl]-[4-[(2S,4R)-4-hydroxy-4-methylpyrrolidine-2-carbonyl]piperazin-1-yl]methanone], the concentration for an effect of 90% (IC90) amounted to 80 nM.

With `CCc1cc(Nc2nccn3c(-c4ccc(OC)c(F)c4F)cnc23)ccc1C(=O)NC(C)(C)CN` [Example 99, N-(1-amino-2-methylpropan-2-yl)-4-((3-(2,3-difluoro-4-methoxyphenyl)imidazo [1,2-a]pyrazin-8-yl)amino)-2-ethylbenzamide hydrochloride], the IC90 was 350 nM.

In the case of `CCc1cc(Nc2nccn3c(-c4ccc(Oc5ncccn5)c(F)c4F)cnc23)ccc1C(=O)NCCCCCN` [Example 558, N-(5-aminopentyl)-4-((3-(2,3-difluoro-4-(pyrimidin-2-yloxy)phenyl)imidazo[1,2-a]pyrazin-8-yl)amino)-2-ethylbenzamide formate], the IC90 worked out at 190 nM.

In the case of `CCc1cc(Nc2nccn3c(-c4ccc(OC(F)F)c(F)c4F)cnc23)ccc1C(=O)NCCCO` [Example 293, 4-[[3-[4-(difluoromethoxy)-2,3-difluorophenyl]imidazo[1,2-a]pyrazin-8-yl]amino]-2-ethyl-N-(3-hydroxypropyl)benzamide], the IC90 came to 120 nM.

Turning to `COc1ccc(-c2cnc3c(Nc4ccc(C(=O)NCC5CCNC5)c(Cl)c4)nccn23)c(F)c1F` (stereo not drawn) [Example 60, 2-chloro-4-[[3-(2,3-difluoro-4-methoxy-phenyl)imidazo[1,2-a]pyrazin-8-yl]amino]-N-(pyrrolidin-3-ylmethyl)benzamide], the IC90 came out at 220 nM.

With `Cc1cc(Nc2nccn3c(-c4ccc(OC(F)F)cc4)cnc23)ccc1C(=O)NC(C)(C)CN1CCOCC1` [Example 222, 4-[[3-[4-(difluoromethoxy)phenyl]im-idazo[1,2-a]pyrazin-8-yl]amino]-2-methyl-N-(2-methyl-1-morpholin-4-ylpropan-2-yl)benzamide], the IC90 is 1100 nM.

As for `CCc1cc(Nc2nccn3c(-c4ccc(Oc5ncccn5)c(F)c4F)cnc23)ccc1C(=O)NCCNC(=O)CCN` [Example 431, N-[2-(3-aminopropanoylamino)ethyl]-4-[[3-(2,3-difluoro-4-pyrimidin-2-yloxy-phenyl)imidazo[1,2-a]pyrazin-8-yl]amino]-2-ethyl-benzamide; formic acid], the concentration for an effect of 90% (IC90) came out at 530 nM.

For `N#CCOc1ccc(-c2cnc3c(Nc4ccc(C(=O)NCCCCCN)c(Cl)c4)nccn23)c(F)c1F` [Example 496, N-(5-aminopentyl)-2-chloro-4-[[3-[4-(cyanomethoxy)-2,3-difluorophenyl]imidazo[1,2-a]pyrazin-8-yl]amino]benzamide], the concentration for an effect of 90% (IC90) was 23 nM.

In the case of `CCc1cc(Nc2nccn3c(-c4ccc(OC)c(F)c4F)cnc23)ccc1C(=O)NCCCNC(=O)[C@@H](N)CCNC(=N)N` [Example 367, N-[3-[[(2S)-2-amino-4-carbamimidamidobutanoyl]amino]propyl]-4-[[3-(2,3-difluoro-4-methoxyphenyl)imidazo[1,2-a]pyrazin-8-yl]amino]-2-ethylbenzamide;formic acid], the IC90 turned out to be 100 nM.

On to `COc1ccc(-c2cnc3c(Nc4ccc(C(=O)NCC5CCN(C(=N)N)CC5)c(C)c4)nccn23)c(F)c1F` [Example 292, N-[(1-carbamimidoylpiperidin-4-yl)methyl]-4-[[3-(2,3-difluoro-4-methoxyphenyl)imidazo[1,2-a]pyrazin-8-yl]amino]-2-methylbenzamide], for which the IC90 worked out at 110 nM.

As for `CCc1cc(Nc2nccn3c(-c4ccc(OC(F)F)c(F)c4F)cnc23)ccc1C(=O)NCCNC(=O)[C@@H](N)CCCNC(=N)N` [Example 333, N-[2-[[(2S)-2-amino-5-carbamimidamidopentanoyl]amino]ethyl]-4-[[3-[4-(difluoromethoxy)-2,3-difluorophenyl]imidazo[1,2-a]pyrazin-8-yl]amino]-2-ethylbenzamide;formic acid], the IC90 amounted to 340 nM.

For `CNC(=O)c1ccc(Nc2nccn3c(-c4ccc(OC(F)F)cc4)cnc23)cc1[N+](=O)[O-]` [Example 54, 4-((3-(4-(difluoromethoxy)phenyl)imidazo[1,2-a]pyrazin-8-yl)amino)-N-methyl-2-nitrobenzamide], the IC90 stood at 820 nM.

As for `Cc1cc(Nc2nccn3c(-c4ccc(Cl)c(F)c4F)cnc23)ccc1C(=O)NCCCCN` [Example 202, N-(4-aminobutyl)-4-[[3-(4-chloro-2,3 difluorophenyl)imidazo[1,2-a]pyrazin-8-yl]amino]-2-methylbenzamide; hydrochlo-ride], the IC90 was determined as 460 nM.

In the case of `Cc1cc(Nc2nccn3c(-c4ccc(OCC#N)c(F)c4F)cnc23)ccc1C(=O)NC[C@@H](N)CNC(=O)[C@@H]1C[C@@H](O)CN1` [Example 473, (2S,4R)-N-[(2R)-2-amino-3-[[4-[[3-[4-(cyanomethoxy)-2,3-difluoro-phenyl]imidazo[1,2-a]pyrazin-8-yl]amino]-2-methyl-benzoyl]amino]propyl]-4-hydroxy-pyrrolidine-2-carboxamide; formic acid], the concentration for an effect of 90% (IC90) is 210 nM.

`CCc1cc(Nc2nccn3c(-c4ccc(Oc5ccc(F)cn5)c(F)c4F)cnc23)ccc1C(=O)NCCNC(=O)[C@H](N)CCNC(=N)N` [Example 429, N-[2-[[(2R)-2-amino-4-guanidino-butanoyl]amino]ethyl]-4-[[3-[2,3-difluoro-4-[(5-fluoro-2-pyridyl)oxy]phenyl]imidazo [1,2-a]pyrazin-8-yl]amino]-2-ethyl-benzamide; formic acid]: the IC90 was 620 nM.

Consider `CCc1cc(Nc2nccn3c(-c4ccc(OCC#N)c(F)c4F)cnc23)ccc1C(=O)NCCNC(=O)[C@@H](N)CN` [Example 145, 4-[[3-[4-(cyanomethoxy)-2,3-difluoro-phenyl]imidazo[1,2-a]pyrazin-8-yl]amino]-N-[2-[[(2S)-2,3-diaminopropanoyl]amino]ethyl]-2-ethyl-benzamide formate], for which the concentration for an effect of 90% (IC90) worked out at 150 nM.

In the case of `C#CCOc1ccc(-c2cnc3c(Nc4ccc(C(=O)N[C@H](C)CN)c(CC)c4)nccn23)c(F)c1F` [Example 460, N-[(1R)-2-amino-1-methyl-ethyl]-4-[[3-(2,3-difluoro-4-prop-2-ynoxy-phenyl)imidazo[1,2-a]pyrazin-8-yl]amino]-2-ethyl-benzamide], the concentration for an effect of 90% (IC90) is 480 nM.

On to `COc1ccc(-c2cnc3c(Nc4ccc(C(=O)NCCC5CCN(C)CC5)c(C)c4)nccn23)cc1` [Example 48], for which the IC90 is 220 nM.

For `COc1ccc(-c2cnc3c(Nc4ccc(C(=O)NCCCNC(=O)CC[C@H](N)C(=O)O)c(C)c4)nccn23)c(F)c1F` [Example 355, (2S)-2-amino-5-[3-[[4-[[3-(2,3-difluoro-4-methoxyphenyl)imidazo[1,2-a]pyrazin-8-yl]amino]-2-methylbenzoyl]amino]propyl-amino]-5-oxopentanoic acid], the IC90 was found to be 2500 nM.

For `Cc1cc(Nc2nccn3c(-c4ccc(Cl)c(F)c4F)cnc23)ccc1C(=O)NCC1CCN(C)CC1` [Example 240, 4-[[3-(4-chloro-2,3-difluorophenyl)imidazo[1,2-a]pyrazin-8-yl]amino]-2-methyl-N-[(1-methylpiperidin-4-yl)methyl]benzamide], the 90% effect concentration (IC90) is 1100 nM.

`Cc1cc(Nc2nccn3c(-c4ccc(OC(F)F)cc4)cnc23)ccc1C(=O)NCC1CCN(C)CC1` [Example 198, 4-[[3-[4-(difluoromethoxy)phenyl]im-idazo[1,2-a]pyrazin-8-yl]amino]-2-methyl-N-[(1-methylpiperidin-4-yl)methyl]benzamide]: the IC90 came to 720 nM.

In the case of `CCc1cc(Nc2nccn3c(-c4ccc(OCC#N)c(F)c4F)cnc23)ccc1C(=O)NCCCN` [Example 299, N-(3-aminopropyl)-4-[[3-[4-(cyanomethoxy)-2,3-difluorophenyl]imidazo[1,2-a]pyrazin-8-yl]amino]-2-ethylbenzamide;2,2,2-trifluoroacetic acid], the IC90 was found to be 180 nM.
